{"source": "paper PMC7181660", "about": "“A novel specific PERK activator reduces toxicity and extends survival in Huntington's disease models” (Scientific Reports, 2020)", "assay_in_all_cases": "biochemical", "assay_type_in_all_cases": "biochemical", "key": {"[1]": {"target": "panel of 391 kinases (Homo sapiens, UniProt P51955)", "conditions": "NEK2, MK-28 1 µM, ATP 1 µM"}, "[2]": {"target": "panel of 391 kinases (Homo sapiens, UniProt Q99986)", "conditions": "VRK1, MK-28 1 µM, ATP 1 µM"}, "[3]": {"target": "panel of 391 kinases (Homo sapiens, UniProt Q15746)", "sequence (Q15746 whole entry)": "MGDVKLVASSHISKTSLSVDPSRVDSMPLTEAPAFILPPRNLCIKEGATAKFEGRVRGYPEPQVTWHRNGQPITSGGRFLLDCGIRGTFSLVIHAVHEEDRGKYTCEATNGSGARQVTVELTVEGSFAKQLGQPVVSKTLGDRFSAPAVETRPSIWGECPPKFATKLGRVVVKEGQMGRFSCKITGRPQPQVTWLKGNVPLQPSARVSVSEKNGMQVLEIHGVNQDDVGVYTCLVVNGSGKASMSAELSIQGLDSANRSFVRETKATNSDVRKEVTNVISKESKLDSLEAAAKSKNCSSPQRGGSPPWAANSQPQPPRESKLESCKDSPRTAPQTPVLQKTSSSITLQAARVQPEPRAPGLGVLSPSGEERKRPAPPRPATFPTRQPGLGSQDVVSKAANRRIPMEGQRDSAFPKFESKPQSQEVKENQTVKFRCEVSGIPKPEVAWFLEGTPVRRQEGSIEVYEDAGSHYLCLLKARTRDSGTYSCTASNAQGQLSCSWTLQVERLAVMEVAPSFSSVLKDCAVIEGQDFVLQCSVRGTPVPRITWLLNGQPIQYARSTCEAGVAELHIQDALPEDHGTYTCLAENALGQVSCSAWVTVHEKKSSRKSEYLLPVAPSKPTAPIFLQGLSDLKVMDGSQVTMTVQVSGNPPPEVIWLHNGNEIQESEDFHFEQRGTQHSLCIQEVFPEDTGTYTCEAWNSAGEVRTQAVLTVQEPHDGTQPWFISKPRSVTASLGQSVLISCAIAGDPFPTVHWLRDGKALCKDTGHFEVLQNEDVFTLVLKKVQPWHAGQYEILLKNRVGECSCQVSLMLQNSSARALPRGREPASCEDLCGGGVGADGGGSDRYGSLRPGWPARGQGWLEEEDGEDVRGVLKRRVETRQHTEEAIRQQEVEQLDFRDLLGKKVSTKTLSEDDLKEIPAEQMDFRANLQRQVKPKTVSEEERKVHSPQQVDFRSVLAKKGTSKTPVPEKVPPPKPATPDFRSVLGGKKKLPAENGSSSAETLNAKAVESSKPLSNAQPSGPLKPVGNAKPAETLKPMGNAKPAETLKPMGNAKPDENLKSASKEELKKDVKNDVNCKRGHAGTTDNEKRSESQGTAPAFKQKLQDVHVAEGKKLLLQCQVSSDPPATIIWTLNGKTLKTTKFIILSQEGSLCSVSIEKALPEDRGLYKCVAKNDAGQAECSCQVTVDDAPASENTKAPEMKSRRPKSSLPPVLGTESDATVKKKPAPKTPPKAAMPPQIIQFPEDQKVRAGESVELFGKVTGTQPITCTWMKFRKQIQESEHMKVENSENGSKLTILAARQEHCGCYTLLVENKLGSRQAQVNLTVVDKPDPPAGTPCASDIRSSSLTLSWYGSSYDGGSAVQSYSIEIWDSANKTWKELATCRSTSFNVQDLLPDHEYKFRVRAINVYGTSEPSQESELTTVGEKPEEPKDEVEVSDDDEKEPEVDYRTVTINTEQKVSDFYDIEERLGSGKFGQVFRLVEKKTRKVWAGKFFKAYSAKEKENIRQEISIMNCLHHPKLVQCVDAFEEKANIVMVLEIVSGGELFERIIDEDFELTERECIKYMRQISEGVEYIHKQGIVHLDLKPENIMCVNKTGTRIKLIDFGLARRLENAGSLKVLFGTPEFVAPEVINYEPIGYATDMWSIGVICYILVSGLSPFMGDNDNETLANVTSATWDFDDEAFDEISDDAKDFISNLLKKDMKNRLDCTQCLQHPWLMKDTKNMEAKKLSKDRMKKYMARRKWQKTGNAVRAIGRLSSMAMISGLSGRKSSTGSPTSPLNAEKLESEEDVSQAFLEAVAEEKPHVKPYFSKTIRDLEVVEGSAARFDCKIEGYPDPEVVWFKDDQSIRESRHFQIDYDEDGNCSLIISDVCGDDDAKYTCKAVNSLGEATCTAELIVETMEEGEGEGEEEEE", "conditions": "MLCK/MYLK, MK-28 1 µM, ATP 1 µM"}, "[4]": {"target": "panel of 391 kinases (Homo sapiens, UniProt P22455)", "conditions": "FGFR4, MK-28 1 µM, ATP 1 µM"}, "[5]": {"target": "panel of 391 kinases (Homo sapiens, UniProt P57059)", "conditions": "SIK1, MK-28 1 µM, ATP 1 µM"}, "[6]": {"target": "panel of 391 kinases (Homo sapiens, UniProt Q9HC98)", "conditions": "NEK6, MK-28 1 µM, ATP 1 µM"}, "[7]": {"target": "panel of 391 kinases (Homo sapiens, UniProt P54756)", "conditions": "EPHA5, MK-28 1 µM, ATP 1 µM"}, "[8]": {"target": "panel of 391 kinases (Homo sapiens, UniProt Q9H422)", "conditions": "HIPK3, MK-28 1 µM, ATP 1 µM"}, "[9]": {"target": "panel of 391 kinases (Homo sapiens, UniProt Q9UM73)", "conditions": "ALK, MK-28 1 µM, ATP 1 µM"}, "[10]": {"target": "panel of 391 kinases (Homo sapiens, UniProt Q96RR4)", "conditions": "CAMKK2, MK-28 1 µM, ATP 1 µM"}, "[11]": {"target": "panel of 391 kinases (Homo sapiens, UniProt Q16816)", "conditions": "PHKg1, MK-28 1 µM, ATP 1 µM"}, "[12]": {"target": "panel of 391 kinases (Homo sapiens, UniProt Q9Y243)", "conditions": "AKT3, MK-28 1 µM, ATP 1 µM"}, "[13]": {"target": "panel of 391 kinases (Homo sapiens, UniProt P05129)", "conditions": "PKCg, MK-28 1 µM, ATP 1 µM"}, "[14]": {"target": "panel of 391 kinases (Homo sapiens, UniProt P49840)", "sequence (P49840 whole entry)": "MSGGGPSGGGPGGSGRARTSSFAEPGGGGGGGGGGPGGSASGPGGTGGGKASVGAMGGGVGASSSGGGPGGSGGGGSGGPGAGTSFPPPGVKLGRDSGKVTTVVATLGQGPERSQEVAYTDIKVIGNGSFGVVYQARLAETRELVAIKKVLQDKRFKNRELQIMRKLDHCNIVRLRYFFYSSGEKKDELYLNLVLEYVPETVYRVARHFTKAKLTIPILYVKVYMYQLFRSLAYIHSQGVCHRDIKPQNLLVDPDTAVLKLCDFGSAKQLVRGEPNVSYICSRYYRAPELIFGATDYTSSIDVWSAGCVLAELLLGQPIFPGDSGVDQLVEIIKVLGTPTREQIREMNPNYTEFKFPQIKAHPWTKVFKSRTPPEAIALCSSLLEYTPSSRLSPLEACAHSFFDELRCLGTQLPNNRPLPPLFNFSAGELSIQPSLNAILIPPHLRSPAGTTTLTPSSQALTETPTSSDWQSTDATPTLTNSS", "conditions": "GSK3a, MK-28 1 µM, ATP 1 µM"}, "[15]": {"target": "panel of 391 kinases (Homo sapiens, UniProt O00506)", "conditions": "STK25/YSK1, MK-28 1 µM, ATP 1 µM"}, "[16]": {"target": "panel of 391 kinases (Homo sapiens, UniProt P78368)", "conditions": "CK1g2, MK-28 1 µM, ATP 1 µM"}, "[17]": {"target": "panel of 391 kinases (Homo sapiens, UniProt P24723)", "sequence (P24723 whole entry)": "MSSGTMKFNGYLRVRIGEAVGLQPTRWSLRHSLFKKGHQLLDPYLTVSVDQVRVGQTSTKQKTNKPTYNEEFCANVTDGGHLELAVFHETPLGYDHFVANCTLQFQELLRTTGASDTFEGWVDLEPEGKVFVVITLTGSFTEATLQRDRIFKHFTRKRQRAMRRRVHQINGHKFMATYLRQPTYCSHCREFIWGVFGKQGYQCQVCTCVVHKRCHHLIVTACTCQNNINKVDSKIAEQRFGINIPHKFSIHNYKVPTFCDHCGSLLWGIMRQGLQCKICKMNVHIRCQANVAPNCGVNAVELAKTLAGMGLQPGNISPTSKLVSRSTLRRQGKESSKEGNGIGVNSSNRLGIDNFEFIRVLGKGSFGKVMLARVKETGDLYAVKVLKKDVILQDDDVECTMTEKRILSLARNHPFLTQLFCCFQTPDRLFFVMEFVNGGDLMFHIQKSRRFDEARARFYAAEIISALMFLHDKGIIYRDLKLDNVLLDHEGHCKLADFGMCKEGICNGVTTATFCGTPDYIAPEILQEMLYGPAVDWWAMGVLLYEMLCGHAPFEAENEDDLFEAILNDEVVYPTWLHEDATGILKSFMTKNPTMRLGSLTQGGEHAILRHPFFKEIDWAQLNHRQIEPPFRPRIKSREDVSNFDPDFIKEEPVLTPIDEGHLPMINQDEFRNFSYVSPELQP", "conditions": "PKCeta, MK-28 1 µM, ATP 1 µM"}, "[18]": {"target": "panel of 391 kinases (Homo sapiens, UniProt Q8IY84)", "conditions": "NIM1, MK-28 1 µM, ATP 1 µM"}, "[19]": {"target": "panel of 391 kinases (Homo sapiens, UniProt P78527)", "conditions": "kinase DNA-PK, compound at 1 µM, single dose in duplicates, 1 µM ATP"}, "[20]": {"target": "panel of 391 kinases (Homo sapiens, UniProt Q13470)", "conditions": "TNK1, MK-28 1 µM, ATP 1 µM"}, "[21]": {"target": "panel of 391 kinases (Homo sapiens, UniProt Q9Y5S2)", "conditions": "MRCKb/CDC42BPB, MK-28 1 µM, ATP 1 µM"}, "[22]": {"target": "panel of 391 kinases (Homo sapiens, UniProt Q5TCY1)", "sequence (Q5TCY1 whole entry)": "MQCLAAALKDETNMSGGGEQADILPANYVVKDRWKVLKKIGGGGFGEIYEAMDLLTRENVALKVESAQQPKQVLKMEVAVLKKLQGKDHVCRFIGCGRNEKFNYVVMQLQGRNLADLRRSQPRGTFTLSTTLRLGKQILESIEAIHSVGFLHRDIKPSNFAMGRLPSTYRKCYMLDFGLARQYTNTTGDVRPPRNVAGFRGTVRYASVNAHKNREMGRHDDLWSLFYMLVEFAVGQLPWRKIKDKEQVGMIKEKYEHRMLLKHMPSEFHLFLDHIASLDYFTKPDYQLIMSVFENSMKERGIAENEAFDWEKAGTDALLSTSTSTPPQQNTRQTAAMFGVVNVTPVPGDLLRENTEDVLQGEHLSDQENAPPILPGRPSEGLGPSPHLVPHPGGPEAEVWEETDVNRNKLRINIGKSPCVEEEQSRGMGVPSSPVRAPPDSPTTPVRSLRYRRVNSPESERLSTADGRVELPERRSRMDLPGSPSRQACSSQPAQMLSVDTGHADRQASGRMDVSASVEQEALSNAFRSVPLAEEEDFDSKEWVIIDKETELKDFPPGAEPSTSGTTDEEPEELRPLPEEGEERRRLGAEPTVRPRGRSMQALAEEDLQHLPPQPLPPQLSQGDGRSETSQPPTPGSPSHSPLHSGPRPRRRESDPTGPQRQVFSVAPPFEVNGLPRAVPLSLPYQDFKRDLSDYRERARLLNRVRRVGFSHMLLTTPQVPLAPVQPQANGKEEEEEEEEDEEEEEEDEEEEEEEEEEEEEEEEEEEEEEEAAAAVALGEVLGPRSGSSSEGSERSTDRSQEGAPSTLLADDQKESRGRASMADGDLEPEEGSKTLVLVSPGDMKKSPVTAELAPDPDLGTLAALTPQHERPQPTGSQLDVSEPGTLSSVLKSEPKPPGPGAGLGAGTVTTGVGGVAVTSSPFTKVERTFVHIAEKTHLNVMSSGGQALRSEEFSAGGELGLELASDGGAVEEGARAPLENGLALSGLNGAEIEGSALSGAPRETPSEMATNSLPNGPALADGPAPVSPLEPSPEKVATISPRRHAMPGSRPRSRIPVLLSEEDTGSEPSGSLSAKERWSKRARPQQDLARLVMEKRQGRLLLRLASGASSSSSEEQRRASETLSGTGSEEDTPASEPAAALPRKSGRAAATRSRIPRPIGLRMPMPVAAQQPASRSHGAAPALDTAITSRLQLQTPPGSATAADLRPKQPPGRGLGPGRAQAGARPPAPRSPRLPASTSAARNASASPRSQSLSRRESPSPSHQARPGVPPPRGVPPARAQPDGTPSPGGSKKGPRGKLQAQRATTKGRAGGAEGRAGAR", "conditions": "TTBK1, MK-28 1 µM, ATP 1 µM"}, "[23]": {"target": "panel of 391 kinases (Homo sapiens, UniProt Q09013)", "conditions": "DMPK, MK-28 1 µM, ATP 1 µM"}, "[24]": {"target": "panel of 391 kinases (Homo sapiens, UniProt P07947)", "sequence (P07947 whole entry)": "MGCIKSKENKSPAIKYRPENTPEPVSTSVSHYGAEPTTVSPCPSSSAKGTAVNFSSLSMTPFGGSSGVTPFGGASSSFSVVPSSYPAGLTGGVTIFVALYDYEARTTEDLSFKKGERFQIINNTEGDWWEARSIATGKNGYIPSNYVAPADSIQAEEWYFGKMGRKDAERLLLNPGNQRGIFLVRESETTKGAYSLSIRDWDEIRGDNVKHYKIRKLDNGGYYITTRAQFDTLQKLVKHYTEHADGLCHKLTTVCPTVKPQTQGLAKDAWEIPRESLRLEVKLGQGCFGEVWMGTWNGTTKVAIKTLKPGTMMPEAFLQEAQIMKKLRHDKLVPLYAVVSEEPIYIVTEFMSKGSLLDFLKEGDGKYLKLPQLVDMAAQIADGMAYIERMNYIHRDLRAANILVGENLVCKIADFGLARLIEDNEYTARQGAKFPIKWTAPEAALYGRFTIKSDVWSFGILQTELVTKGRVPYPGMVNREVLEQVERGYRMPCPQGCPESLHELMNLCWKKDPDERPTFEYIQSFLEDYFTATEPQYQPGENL", "conditions": "YES/YES1, MK-28 1 µM, ATP 1 µM"}, "[25]": {"target": "panel of 391 kinases (Homo sapiens, UniProt Q15120)", "conditions": "kinase PDK3/PDHK3, compound at 1 µM, single dose in duplicates, 1 µM ATP"}, "[26]": {"target": "panel of 391 kinases (Homo sapiens, UniProt Q9UKE5)", "conditions": "TNIK, MK-28 1 µM, ATP 1 µM"}, "[27]": {"target": "panel of 391 kinases (Homo sapiens, UniProt Q13177)", "conditions": "PAK2, MK-28 1 µM, ATP 1 µM"}, "[28]": {"conditions": "read-out: % Enzyme Activity (relative to DMSO controls)"}}, "data": [{"smiles": "CN(/N=C\\c1ccc(O)c(O)c1)c1nc(-c2ccccc2)cc(-c2ccccc2)n1", "note": "[MK-28]", "values": [{"measurement": "% Enzyme Activity (relative to DMSO controls)", "setting": "[1]", "result": 98.55, "unit": "%"}, {"measurement": "remaining activity at 1 µM", "setting": "[1]; [28]", "result": 99.2, "unit": "%"}, {"measurement": "% Enzyme Activity (relative to DMSO controls)", "setting": "[2]", "result": 104.86, "unit": "%"}, {"measurement": "remaining activity at 1 µM", "setting": "[2]; [28]", "result": 106, "unit": "%"}, {"measurement": "% Enzyme Activity (relative to DMSO controls)", "setting": "[3]", "result": 91.99, "unit": "%"}, {"measurement": "remaining activity at 1 µM", "setting": "[3]; [28]", "result": 93, "unit": "%"}, {"measurement": "% Enzyme Activity (relative to DMSO controls)", "setting": "[4]", "result": 100.59, "unit": "%"}, {"measurement": "remaining activity at 1 µM", "setting": "[4]; [28]", "result": 105, "unit": "%"}, {"measurement": "% Enzyme Activity (relative to DMSO controls)", "setting": "[5]", "result": 83.98, "unit": "%"}, {"measurement": "remaining activity at 1 µM", "setting": "[5]; [28]", "result": 85, "unit": "%"}, {"measurement": "% Enzyme Activity (relative to DMSO controls)", "setting": "[6]", "result": 99.56, "unit": "%"}, {"measurement": "remaining activity at 1 µM", "setting": "[6]; [28]", "result": 100, "unit": "%"}, {"measurement": "% Enzyme Activity (relative to DMSO controls)", "setting": "[7]", "result": 98.83, "unit": "%"}, {"measurement": "remaining activity at 1 µM", "setting": "[7]; [28]", "result": 103, "unit": "%"}, {"measurement": "% Enzyme Activity (relative to DMSO controls)", "setting": "[8]", "result": 104.43, "unit": "%"}, {"measurement": "remaining activity at 1 µM", "setting": "[8]; [28]", "result": 105, "unit": "%"}, {"measurement": "% Enzyme Activity (relative to DMSO controls)", "setting": "[9]", "result": 82.73, "unit": "%"}, {"measurement": "remaining activity at 1 µM", "setting": "[9]; [28]", "result": 82.8, "unit": "%"}, {"measurement": "% Enzyme Activity (relative to DMSO controls)", "setting": "[10]", "result": 93.50, "unit": "%"}, {"measurement": "remaining activity at 1 µM", "setting": "[10]; [28]", "result": 97.2, "unit": "%"}, {"measurement": "% Enzyme Activity (relative to DMSO controls)", "setting": "[11]", "result": 89.19, "unit": "%"}, {"measurement": "remaining activity at 1 µM", "setting": "[11]; [28]", "result": 90.7, "unit": "%"}, {"measurement": "% Enzyme Activity (relative to DMSO controls)", "setting": "[12]", "result": 81.92, "unit": "%"}, {"measurement": "remaining activity at 1 µM", "setting": "[12]; [28]", "result": 82.2, "unit": "%"}, {"measurement": "% Enzyme Activity (relative to DMSO controls)", "setting": "[13]", "result": 101.88, "unit": "%"}, {"measurement": "remaining activity at 1 µM", "setting": "[13]; [28]", "result": 104, "unit": "%"}, {"measurement": "% Enzyme Activity (relative to DMSO controls)", "setting": "[14]", "result": 82.88, "unit": "%"}, {"measurement": "remaining activity at 1 µM", "setting": "[14]; [28]", "result": 83, "unit": "%"}, {"measurement": "% Enzyme Activity (relative to DMSO controls)", "setting": "[15]", "result": 93.29, "unit": "%"}, {"measurement": "remaining activity at 1 µM", "setting": "[15]; [28]", "result": 95.7, "unit": "%"}, {"measurement": "% Enzyme Activity (relative to DMSO controls)", "setting": "[16]", "result": 83.33, "unit": "%"}, {"measurement": "remaining activity at 1 µM", "setting": "[16]; [28]", "result": 87, "unit": "%"}, {"measurement": "% Enzyme Activity (relative to DMSO controls)", "setting": "[17]", "result": 98.39, "unit": "%"}, {"measurement": "remaining activity at 1 µM", "setting": "[17]; [28]", "result": 101, "unit": "%"}, {"measurement": "% Enzyme Activity (relative to DMSO controls)", "setting": "[18]", "result": 98.00, "unit": "%"}, {"measurement": "remaining activity at 1 µM", "setting": "[18]; [28]", "result": 104, "unit": "%"}, {"measurement": "% Enzyme Activity (relative to DMSO controls)", "setting": "[19]", "result": 102.10, "unit": "%"}, {"measurement": "remaining activity at 1 µM", "setting": "[19]; [28]", "result": 103, "unit": "%"}, {"measurement": "% Enzyme Activity (relative to DMSO controls)", "setting": "[20]", "result": 104.14, "unit": "%"}, {"measurement": "remaining activity at 1 µM", "setting": "[20]; [28]", "result": 108, "unit": "%"}, {"measurement": "% Enzyme Activity (relative to DMSO controls)", "setting": "[21]", "result": 100.39, "unit": "%"}, {"measurement": "remaining activity at 1 µM", "setting": "[21]; [28]", "result": 101, "unit": "%"}, {"measurement": "% Enzyme Activity (relative to DMSO controls)", "setting": "[22]", "result": 93.65, "unit": "%"}, {"measurement": "remaining activity at 1 µM", "setting": "[22]; [28]", "result": 99, "unit": "%"}, {"measurement": "% Enzyme Activity (relative to DMSO controls)", "setting": "[23]", "result": 103.01, "unit": "%"}, {"measurement": "remaining activity at 1 µM", "setting": "[23]; [28]", "result": 104, "unit": "%"}, {"measurement": "% Enzyme Activity (relative to DMSO controls)", "setting": "[24]", "result": 96.24, "unit": "%"}, {"measurement": "remaining activity at 1 µM", "setting": "[24]; [28]", "result": 97.6, "unit": "%"}, {"measurement": "% Enzyme Activity (relative to DMSO controls)", "setting": "[25]", "result": 102.25, "unit": "%"}, {"measurement": "remaining activity at 1 µM", "setting": "[25]; [28]", "result": 105, "unit": "%"}, {"measurement": "% Enzyme Activity (relative to DMSO controls)", "setting": "[26]", "result": 100.50, "unit": "%"}, {"measurement": "remaining activity at 1 µM", "setting": "[26]; [28]", "result": 102, "unit": "%"}, {"measurement": "% Enzyme Activity (relative to DMSO controls)", "setting": "[27]", "result": 99.51, "unit": "%"}, {"measurement": "remaining activity at 1 µM", "setting": "[27]; [28]", "result": 99.7, "unit": "%"}]}]}
